Experimental data reported in patent publication US20210078932A1, “3,4-DIHYDROXYPHENETHYL 3-HYDROXYBUTANOATE, PREPARATION AND USE THEREOF” (XI'AN JIAOTONG UNIVERSITY, priority 2019, published 2021).

Experiments:
rats with brain fatigue [1] = assay: Morris water maze experiment (exploration test) in sleep-deprivation brain fatigue rat model; type: in vivo, SD rats
Protocol: 8-week-old adult male SD rats (body weight: 250 g) purchased from Experimental Animal Center of The Second Military Medical University in Shanghai were used in the experiments. The rats were kept in an animal room with controlled temperature (22° C. to 28° C.) and humidity (60%). The light of the room was maintained in a 12 h/12 h day/night light cycle. The rats were able to eat and drink freely during the experiments. A brain fatigue rat model was established by using the sleep deprivation method in the experiments. The experimental rats were divided into five groups, with 10 rats in each group. […]

rats with brain fatigue [2] = assay: Open field test in sleep-deprivation brain fatigue rat model; type: in vivo, SD rats; details: for amelioration of manic mood of the rats with brain fatigue: overall conclusion after administration; for average moving speed / number of movements: sleep-deprived rats, drug intragastrically daily, compared with brain fatigue group; for average moving speed: FIG. 2A; for number of movements: FIG. 2B
Protocol: 8-week-old adult male SD rats (body weight: 250 g) purchased from Experimental Animal Center of The Second Military Medical University in Shanghai were used in the experiments. The rats were kept in an animal room with controlled temperature (22° C. to 28° C.) and humidity (60%). The light of the room was maintained in a 12 h/12 h day/night light cycle. The rats were able to eat and drink freely during the experiments. A brain fatigue rat model was established by using the sleep deprivation method in the experiments. The experimental rats were divided into five groups, with 10 rats in each group.
The five groups are as follows: (1) a normal feeding group with normal saline intragastrically administered daily (hereinafter referred to as the control group); (2) a brain fatigue model group established by the sleep deprivation method, with normal saline intragastrically administered daily (hereinafter referred to as the brain fatigue group); (3) a brain fatigue model group established by the sleep deprivation method, with 35 mg/kg of hydroxytyrosol acetate intragastrically administered daily (hereinafter referred to as HTac group, as shown in the following table); (4) a brain fatigue model group established by the sleep deprivation method, with 23.6 mg/kg of […] intragastrically administered daily (hereinafter referred to as HBET group, as shown in the following table); (5) a brain fatigue model group established by the sleep deprivation method, with 42.9 mg/kg of hydroxytyrosol hydroxybutyrate intragastrically administered daily (hereinafter referred to as HTHB group, as shown in Table 1).
The rats were preconditioned in the animal room for one week, during which the drugs were intragastrically administered. From the second day of the acquisition training of the water maze experiment, the rats other than the control group were started to be subjected to the small-platform-over-water sleep deprivation to establish the brain fatigue stress model. The sleep deprivation apparatus was mainly composed of two parts: a water tank and a platform disposed in the tank. The tank was filled with water. The size of the platform can only for the hind legs of the rat to stand. The platform was fixed to the bottom of the tank, and the top surface of the platform is above the water surface. The rat was placed on the platform for sleep deprivation. Once the rat fell asleep, its muscle tension would decrease and its center of gravity would move forward, which would cause the rat to fall into the water and suddenly be awakened. In order to avoid this, the rat must keep a slight grip on the edge of the platform, which deprived the sleep of the rat and caused brain fatigue.
The open field test is a classic behavioral test to evaluate emotion of rodents, which is based on the principle that the rodents have instincts to fear an open field and have spontaneous phobotaxis activities. Abnormalities in phobotaxis can indicate emotional abnormalities of rodents. The apparatus of the open field test was mainly composed of a black PVC box and a video tracking system. The box was 80 cm in both length and width and 50 cm in height. A camera of the video tracking system was hung at a height of 1.5 meters from the bottom of the box. The rat can move freely in the open field box, and the camera facing the box recorded the movements of the rat. By using the video tracking system, the interior of the box was divided into 16 squares arranged in 4×4 matrix, in which 12 surrounding squares were defined as a surrounding area, and 4 internal squares were defined as a central area, respectively.
The open field test follows the last day of the water maze experiment. After the water maze experiment, each rat was put back into the cage and rested for 10 minutes. Then in the open field test, the rat was placed at the center of the box bottom in a quiet environment, and was video recorded by the camera for 5 minutes, after which the rat was removed from the box. […]

Row | Molecule | improvement of learning and memory abilities of the rats with brain fatigue (rats with brain fatigue [1]; overall conclusion, compared with hydroxytyrosol acetate and ethyl β-hydroxybutyrate) | swimming time in the quadrant IV (percentage) (rats with brain fatigue [1]; sleep-deprived rats, drug intragastrically daily, compared with brain fatigue group, FIG. 1A) | amelioration of manic mood compared with hydroxytyrosol acetate and ethyl β-hydroxybutyrate (rats with brain fatigue [2]; overall comparison, in some indicators) | amelioration of manic mood of the rats with brain fatigue (rats with brain fatigue [2]) | average moving speed (rats with brain fatigue [2]) | number of movements (rats with brain fatigue [2])
1 | CC(O)CC(=O)OCCc1ccc(O)c(O)c1 (centres unmarked) [HTHB, 3,4-dihydroxyphenethyl 3-hydroxybutanoate] | more obviously improved the learning and memory abilities | significantly different | better amelioration of manic mood | significantly ameliorated to certain degrees | significantly different | significantly different
2 | CCOC(=O)CC(C)O (stereo not drawn) [HBET, ethyl β-hydroxybutyrate] |  |  |  | significantly ameliorated to certain degrees | significantly different | 
3 | hydroxytyrosol acetate [HTac] |  |  |  | significantly ameliorated to certain degrees | significantly different | significantly different
